pIC50: −log10 of the molar value.
Each compound was assayed against T1, hP2X4 (human purinergic P2X receptor subtype 4) (Homo sapiens, UniProt Q99571) (assay: FLIPR assay of intracellular calcium increase induced by activation of hP2X4 expressed in HEK293 cells (agonist BZ-ATP 2.5 μM)). Conditions: HEK293 cells stably expressing hP2X4, FLIPR, class symbols, read-out: P2X4 IC50.
T1 sequence (Q99571 1-404 isoform Q99571-2): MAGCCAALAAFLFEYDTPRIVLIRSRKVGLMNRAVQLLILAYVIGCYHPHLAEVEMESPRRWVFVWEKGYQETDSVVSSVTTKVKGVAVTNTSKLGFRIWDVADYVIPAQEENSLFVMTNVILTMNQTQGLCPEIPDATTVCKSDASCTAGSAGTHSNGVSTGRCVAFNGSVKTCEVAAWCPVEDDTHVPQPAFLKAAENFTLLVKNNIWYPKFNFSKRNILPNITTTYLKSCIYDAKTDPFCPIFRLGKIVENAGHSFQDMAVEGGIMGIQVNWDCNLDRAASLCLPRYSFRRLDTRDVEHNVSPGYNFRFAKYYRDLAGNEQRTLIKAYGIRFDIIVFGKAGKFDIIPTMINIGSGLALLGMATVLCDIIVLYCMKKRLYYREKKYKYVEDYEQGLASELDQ
Type: cell-based
Procedure: The antagonist property of the compounds disclosed herein was determined using the FLIPR (fluorescence imaging plate reader) method, wherein the compounds are inhibitors for the intracellular calcium increase induced by activation of hP2X4 (human purinergic P2X receptor subtype 4, accession No. NM_001256796.2) expressed in HEK293 cells (human renal epithelial cell line, ATCC).
HEK293 cells stably expressing hP2X4 were cultured in DMEM high glucose medium containing 10% FBS (fetal bovine serum, Biosera, FB-1058/500), 1% penicillin-streptomycin (Gibco, 15140-122) and 1 mg/mL G418 (CABIOCHE, 345810) in a cell incubator (37° C., […]). Cells at 400,000 cells/mL were seeded into a 384-well plate (10,000 cells/well) 18-24 h prior to the FLIPR experiment and then incubated overnight in a cell incubator. On the day of the experiment, the medium was discarded and the cells were washed in an FLIPR buffer (0.3 mL of probenecid (Thermo, P36400), 0.6 mL of 1 M HEPES (Invitrogen, 15630080) and 29.1 mL of HBSS (Invitrogen, 14065056) per 30 mL of the buffer). Each well was added with 20 μL of 0.5× Calcium 6 fluorescent dye (Molecular Devices, R8190) and then the cells were subjected to dye-loading incubation at 37° C. for 1.5 h. Each well was added with 10 μL of respective test compound (dissolved in DMSO at a concentration of 10 mM and serially diluted with buffer) or vehicle and the mixture was equilibrated for 30 min at room temperature. The cell plate was then placed in the FLIPR for baseline fluorescence measurements (excitation at 485 nm and emission at 525-535 nm). An agonist (BZ-ATP (Sigma, B6396) at a final concentration of 2.5 μM) or a vehicle (ultrapure water) was then added at 10 μL/well, fluorescence values were measured for 2 min at 1-second intervals, and finally the output fluorescence counts were analyzed.

| Structure (SMILES) | pIC50 |
| --- | --- |
| CC(c1ccc(F)cc1)n1cc2c(S(N)(=O)=O)cc(NC(=O)Cc3ccccc3Cl)cc2n1 (stereo not drawn) [Compound 40-A, 2-(2-chlorophenyl)-N-(2-(1-(4-fluorophenyl)ethyl)-4-sulfamoyl-2H-indazol-6-yl)acetamide] | 7.30 to 8.00 |
| CC(c1ccc(F)cc1)n1ncc2c(S(N)(=O)=O)cc(NC(=O)Cc3ccccc3Cl)cc21 (stereo not drawn) [Compound 40-B, 2-(2-chlorophenyl)-N-(1-(1-(4-fluorophenyl)ethyl)-4-sulfamoyl-1H-indazol-6-yl)acetamide] | ≥ 8.00 |
| CC(C)C(=O)n1cc2c(S(N)(=O)=O)cc(NC(=O)Cc3ccccc3Cl)cc2n1 [Compound 41, 2-(2-chlorophenyl)-N-(2-isobutyryl-4-sulfamoyl-2H-indazol-6-yl)acetamide] | 7.30 to 8.00 |
| NS(=O)(=O)c1cc(NC(=O)Cc2ccccc2Cl)cc2nn(C(=O)c3ccc(F)cc3)cc12 [Compound 42-A, 2-(2-chlorophenyl)-N-(2-(4-fluorobenzoyl)-4-sulfamoyl-2H-indazol-6-yl)acetamide] | 7.30 to 8.00 |
| NS(=O)(=O)c1cc(NC(=O)Cc2ccccc2Cl)cc2c1cnn2C(=O)c1ccc(F)cc1 [Compound 42-B, 2-(2-chlorophenyl)-N-(1-(4-fluorobenzoyl)-4-sulfamoyl-1H-indazol-6-yl)acetamide] | 5.30 to 6.70 |
| NS(=O)(=O)c1cc(NC(=O)Cc2ccccc2Cl)cc2c1cnn2C(F)F [Compound 43, 2-(2-chlorophenyl)-N-(1-(difluoromethyl)-4-sulfamoyl-1H-indazol-6-yl)acetamide] | 7.30 to 8.00 |
| NS(=O)(=O)c1cc(NC(=O)Cc2ccccc2Cl)cc2c1cnn2-c1ccc(Cl)cc1 [Compound 45, 2-(2-chlorophenyl)-N-(1-(4-chlorophenyl)-4-sulfamoyl-1H-indazol-6-yl)acetamide] | 7.30 to 8.00 |
| CN(C)c1cccc(Cn2ncc3c(S(N)(=O)=O)cc(NC(=O)Cc4ccccc4Cl)cc32)c1 [Compound 46, 2-(2-chlorophenyl)-N-(1-(3-(dimethylamino)benzyl)-4-sulfamoyl-1H-indazol-6-yl)acetamide] | 7.30 to 8.00 |
| NS(=O)(=O)c1cc(NC(=O)Cc2ccccc2Cl)cc2cn(CCO)nc12 [Compound 48-A, 2-(2-chlorophenyl)-N-(2-(2-hydroxyethyl)-7-sulfamoyl-2H-indazol-5-yl)acetamide] | 5.30 to 6.70 |
| NS(=O)(=O)c1cc(NC(=O)Cc2ccccc2Cl)cc2cnn(CCO)c12 [Compound 48-B, 2-(2-chlorophenyl)-N-(1-(2-hydroxyethyl)-7-sulfamoyl-1H-indazol-5-yl)acetamide] | 5.30 to 6.70 |
| NS(=O)(=O)c1cc(NC(=O)Cc2ccccc2Cl)cc2cnn(C(F)F)c12 [Compound 50, 2-(2-chlorophenyl)-N-(1-(difluoromethyl)-7-sulfamoyl-1H-indazol-5-yl)acetamide] | 6.70 to 7.30 |
| NS(=O)(=O)c1cc(NC(=O)Cc2ccccc2Cl)cc2nc(C3CC3)[nH]c12 [Compound 52, 2-(2-chlorophenyl)-N-(2-cyclopropyl-7-sulfamoyl-1H-benzo[d]imidazol-5-yl)acetamide] | 5.30 to 6.70 |
| NS(=O)(=O)c1cc(NC(=O)Cc2ccccc2Cl)cc2nc(-c3ccc(Cl)cc3)[nH]c12 [Compound 54, 2-(2-chlorophenyl)-N-(2-(4-chlorophenyl)-7-sulfamoyl-1H-benzo[d]imidazol-5-yl)acetamide] | 5.30 to 6.70 |
| NS(=O)(=O)c1cc(NC(=O)Cc2ccccc2Cl)cc2c1ncn2-c1ccc(Cl)cc1 [Compound 55, 2-(2-chlorophenyl)-N-(1-(4-chlorophenyl)-4-sulfamoyl-1H-benzo[d]imidazol-6-yl)acetamide] | 7.30 to 8.00 |
| NS(=O)(=O)c1cc(NC(=O)Cc2ccccc2Cl)cc2[nH]ccc12 [Compound 56, 2-(2-chlorophenyl)-N-(4-sulfamoyl-1H-indol-6-yl)acetamide] | 7.30 to 8.00 |
| CC(C)C(=O)n1ncc2c(S(N)(=O)=O)cc(NC(=O)Cc3ccccc3Cl)cc21 [Compound 58, 2-(2-chlorophenyl)-N-(1-isobutyryl-4-sulfamoyl-1H-indazol-6-yl)acetamide] | 5.30 to 6.70 |
| NS(=O)(=O)c1cc(NC(=O)Cc2ccccc2Cl)cc2nn(C3COC3)cc12 [Compound 59, 2-(2-chlorophenyl)-N-(2-(oxetan-3-yl)-4-sulfamoyl-2H-indazol-6-yl)acetamide] | 5.30 to 6.70 |

| Structure (SMILES) | pIC50 |
| --- | --- |
| NS(=O)(=O)c1cc(NC(=O)Cc2ccccc2Cl)cc2c1c(Cl)nn2-c1ccc(F)cc1 [Compound 75, N-(3-chloro-1-(4-fluorophenyl)-4-sulfamoyl-1H-indazol-6-yl)-2-(2-chlorophenyl)acetamide] | 5.30 to 6.70 |
| COc1ccc(Cn2cc3c(S(N)(=O)=O)cc(NC(=O)Cc4ccccc4Cl)cc3n2)cc1F [Compound 82] | ≥ 8.00 |
| COc1ccc(Cn2ncc3c(S(N)(=O)=O)cc(NC(=O)Cc4ccccc4Cl)cc32)c(F)c1 [Compound 83, 2-(2-chlorophenyl)-N-(1-(2-fluoro-4-methoxybenzyl)-4-sulfamoyl-1H-indazol-6-yl)acetamide] | ≥ 8.00 |
| COc1ccc(Cn2cc3c(S(N)(=O)=O)cc(NC(=O)Cc4ccccc4Cl)cc3n2)c(F)c1 [Compound 85] | ≥ 8.00 |
| COc1ccc(Cn2cc3c(S(N)(=O)=O)cc(NC(=O)Cc4ccccc4Cl)cc3n2)c(Cl)c1 [Compound 86] | ≥ 8.00 |
| COc1ccc(Cn2cc3c(S(N)(=O)=O)cc(NC(=O)Cc4ccccc4Cl)cc3n2)c(Br)c1 [Compound 87] | ≥ 8.00 |
| NS(=O)(=O)c1cc(NC(=O)Cc2ccccc2Cl)cc2c1cnn2Cc1ccc(Cl)cc1 [Compound 89A, N-(1-(4-chlorobenzyl)-4-sulfamoyl-1H-indazol-6-yl)-2-(2-chlorophenyl)acetamide] | ≥ 8.00 |
| NS(=O)(=O)c1cc(NC(=O)Cc2ccccc2Cl)cc2nn(Cc3ccc(C(F)(F)F)cc3)cc12 [Compound 90, 2-(2-chlorophenyl)-N-(4-sulfamoyl-2-(4-(trifluoromethyl)benzyl)-2H-indazol-6-yl)acetamide] | ≥ 8.00 |
| Cc1ccc(Cn2cc3c(S(N)(=O)=O)cc(NC(=O)Cc4ccccc4Cl)cc3n2)cc1 [Compound 92, 2-(2-chlorophenyl)-N-(2-(4-methylbenzyl)-4-sulfamoyl-2H-indazol-6-yl)acetamide] | ≥ 8.00 |
| Cc1ccc(Cn2ncc3c(S(N)(=O)=O)cc(NC(=O)Cc4ccccc4Cl)cc32)cc1 [Compound 92A, 2-(2-chlorophenyl)-N-(1-(4-methylbenzyl)-4-sulfamoyl-1H-indazol-6-yl)acetamide] | ≥ 8.00 |
| COc1ccc(Cn2cc3c(S(N)(=O)=O)cc(NC(=O)Cc4ccccc4Cl)cc3n2)nc1 [Compound 93] | ≥ 8.00 |
| COc1ccc(Cn2cc3c(S(N)(=O)=O)cc(NC(=O)Cc4ccccc4Cl)cc3n2)cn1 [Compound 94] | ≥ 8.00 |
| Nc1ccc(Cn2cc3c(S(N)(=O)=O)cc(NC(=O)Cc4ccccc4Cl)cc3n2)cc1 [Compound 95, N-(2-(4-aminobenzyl)-4-sulfamoyl-2H-indazol-6-yl)-2-(2-chlorophenyl)acetamide] | ≥ 8.00 |
| Nc1ccc(Cn2ncc3c(S(N)(=O)=O)cc(NC(=O)Cc4ccccc4Cl)cc32)cc1 [Compound 95A, N-(1-(4-aminobenzyl)-4-sulfamoyl-1H-indazol-6-yl)-2-(2-chlorophenyl)acetamide] | ≥ 8.00 |
| NS(=O)(=O)c1cc(NC(=O)Cc2ccccc2Cl)cc2nn(CC3CCC(O)CC3)cc12 (stereo not drawn) [Compound 108] | 6.70 to 7.30 |
| NS(=O)(=O)c1cc(NC(=O)Cc2ncccc2Cl)cc2nn(C(F)F)cc12 [Compound 113, 2-(3-chloropyridin-2-yl)-N-(2-(difluoromethyl)-4-sulfamoyl-2H-indazol-6-yl)acetamide] | 5.30 to 6.70 |
| COc1ccccc1CC(=O)Nc1cc(S(N)(=O)=O)c2cn(C(F)F)nc2c1 [Compound 115, N-(2-(difluoromethyl)-4-sulfamoyl-2H-indazol-6-yl)-2-(2-methoxyphenyl)acetamide] | 5.30 to 6.70 |

Same assay, conditions: HEK293 cells stably expressing hP2X4, FLIPR, numeric values, read-out: P2X4 IC50

| Structure (SMILES) | pIC50 |
| --- | --- |
| NS(=O)(=O)c1cc(NC(=O)Cc2ccccc2Cl)cc2cn(C(F)F)nc12 [Compound 49, 2-(2-chlorophenyl)-N-(2-(difluoromethyl)-7-sulfamoyl-2H-indazol-5-yl)acetamide] | 7.05 |
| N#Cc1nc2c(S(N)(=O)=O)cc(NC(=O)Cc3ccccc3Cl)cc2[nH]1 [Compound 51, 6-(2-chlorophenylacetamide)-2-nitrile-4-sulfonamide benzimidazole] | 6.03 |
